TGI data for 6 compounds are collected here from PubChem BioAssay (NCI).

Structures are written as SMILES.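 96-well plates; 48 h exposure; 5 concentrations. Endpoints by linear interpolation between flanking doses. Not reached: highest tested concentration assigned. TGI: total growth inhibition.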

One experiment concerns A498 renal. Kind of experiment: NCI anticancer screen, dose series, 48 h.
For the compound `C[C@]12CCC(O)CC1=CC[C@@H]1[C@@H]2CC[C@]2(C)C(=O)[C@H](n3ccnc3)C[C@@H]12` (some centres not stated), the TGI was over 100 µM.

For `O=C1/C(=C\c2ccccc2)C(NC2CCCCC2)c2ccccc21` (configuration not stated), the TGI amounted to 32.7 µM.

As for `CCOC(=O)C1(C/C=C/CBr)Cc2ccccc2C1=O` (configuration not stated), the TGI came to 32.6 µM.

In turn, `COc1ccc(-c2c(C#N)c(-c3ccc(C)cc3)n(NS(=O)(=O)c3ccc(C)cc3)c(=O)c2C#N)cc1` came in with a TGI of over 100 µM.

In turn, `N#Cc1c(N2CCCC2)ncn(-c2ccccc2)c1=O` registered a TGI of over 100 µM.

`O=C1CCCSC(=O)N1Cc1ccccc1` returned a TGI of over 100 µM.

Another experiment concerns HCT-116 colon. Kind of experiment: NCI anticancer screen, dose series, 48 h.
In turn, `C[C@]12CCC(O)CC1=CC[C@@H]1[C@@H]2CC[C@]2(C)C(=O)[C@H](n3ccnc3)C[C@@H]12` (some centres not stated) displayed a TGI of over 100 µM.

`O=C1/C(=C\c2ccccc2)C(NC2CCCCC2)c2ccccc21` (configuration not stated) had a TGI of 2.44 µM.

For `CCOC(=O)C1(C/C=C/CBr)Cc2ccccc2C1=O` (configuration not stated), the TGI came to 15.8 µM.

In turn, `COc1ccc(-c2c(C#N)c(-c3ccc(C)cc3)n(NS(=O)(=O)c3ccc(C)cc3)c(=O)c2C#N)cc1` yielded a TGI of over 100 µM.

`N#Cc1c(N2CCCC2)ncn(-c2ccccc2)c1=O` had a TGI of over 100 µM.

`O=C1CCCSC(=O)N1Cc1ccccc1` registered a TGI of over 100 µM.

The next experiment has as its system HS 578T breast. Put plainly: NCI anticancer screen, dose series, 48 h.
In the case of `C[C@]12CCC(O)CC1=CC[C@@H]1[C@@H]2CC[C@]2(C)C(=O)[C@H](n3ccnc3)C[C@@H]12` (some centres not stated), the TGI was over 100 µM.

On to `O=C1/C(=C\c2ccccc2)C(NC2CCCCC2)c2ccccc21` (configuration not stated), for which the TGI turned out to be 16.3 µM.

With `CCOC(=O)C1(C/C=C/CBr)Cc2ccccc2C1=O` (configuration not stated), the TGI worked out at 24.4 µM.

For the compound `COc1ccc(-c2c(C#N)c(-c3ccc(C)cc3)n(NS(=O)(=O)c3ccc(C)cc3)c(=O)c2C#N)cc1`, the TGI is 75.1 µM.

On to `N#Cc1c(N2CCCC2)ncn(-c2ccccc2)c1=O`, for which the TGI is over 100 µM.

Compound `O=C1CCCSC(=O)N1Cc1ccccc1` came in with a TGI of over 100 µM.

For another experiment, the system named is LOX IMVI melanoma. Kind of experiment: NCI anticancer screen, dose series, 48 h.
In the case of `C[C@]12CCC(O)CC1=CC[C@@H]1[C@@H]2CC[C@]2(C)C(=O)[C@H](n3ccnc3)C[C@@H]12` (some centres not stated), the TGI is over 100 µM.

`O=C1/C(=C\c2ccccc2)C(NC2CCCCC2)c2ccccc21` (configuration not stated) yielded a TGI of 3.33 µM.

`CCOC(=O)C1(C/C=C/CBr)Cc2ccccc2C1=O` (configuration not stated) showed a TGI of 3.23 µM.

With `COc1ccc(-c2c(C#N)c(-c3ccc(C)cc3)n(NS(=O)(=O)c3ccc(C)cc3)c(=O)c2C#N)cc1`, the TGI is over 100 µM.

For `N#Cc1c(N2CCCC2)ncn(-c2ccccc2)c1=O`, the TGI is over 100 µM.

For the compound `O=C1CCCSC(=O)N1Cc1ccccc1`, the TGI was over 100 µM.

Another experiment deals with MALME-3M melanoma. Kind of experiment: NCI anticancer screen, dose series, 48 h.
Compound `C[C@]12CCC(O)CC1=CC[C@@H]1[C@@H]2CC[C@]2(C)C(=O)[C@H](n3ccnc3)C[C@@H]12` (some centres not stated) yielded a TGI of over 100 µM.

`O=C1/C(=C\c2ccccc2)C(NC2CCCCC2)c2ccccc21` (configuration not stated) gave a TGI of 3.01 µM.

`CCOC(=O)C1(C/C=C/CBr)Cc2ccccc2C1=O` (configuration not stated): the TGI stood at 7.43 µM.

As for `COc1ccc(-c2c(C#N)c(-c3ccc(C)cc3)n(NS(=O)(=O)c3ccc(C)cc3)c(=O)c2C#N)cc1`, the TGI was over 100 µM.

On to `N#Cc1c(N2CCCC2)ncn(-c2ccccc2)c1=O`, for which the TGI is over 100 µM.

As for `O=C1CCCSC(=O)N1Cc1ccccc1`, the TGI is over 100 µM.

The subject of a further experiment is MOLT-4 leukemia. Kind of experiment: NCI anticancer screen, dose series, 48 h.
The compound `C[C@]12CCC(O)CC1=CC[C@@H]1[C@@H]2CC[C@]2(C)C(=O)[C@H](n3ccnc3)C[C@@H]12` (some centres not stated) showed a TGI of 53.1 µM.

As for `O=C1/C(=C\c2ccccc2)C(NC2CCCCC2)c2ccccc21` (configuration not stated), the TGI turned out to be 3.02 µM.

Consider `CCOC(=O)C1(C/C=C/CBr)Cc2ccccc2C1=O` (configuration not stated), for which the TGI came out at 8.31 µM.

For `COc1ccc(-c2c(C#N)c(-c3ccc(C)cc3)n(NS(=O)(=O)c3ccc(C)cc3)c(=O)c2C#N)cc1`, the TGI worked out at 57.4 µM.

Compound `N#Cc1c(N2CCCC2)ncn(-c2ccccc2)c1=O` gave a TGI of over 100 µM.

Turning to `O=C1CCCSC(=O)N1Cc1ccccc1`, the TGI was over 100 µM.

In a further experiment the test system is NCI-H460 lung. Put plainly: NCI anticancer screen, dose series, 48 h.
On to `C[C@]12CCC(O)CC1=CC[C@@H]1[C@@H]2CC[C@]2(C)C(=O)[C@H](n3ccnc3)C[C@@H]12` (some centres not stated), for which the TGI was over 100 µM.

With `O=C1/C(=C\c2ccccc2)C(NC2CCCCC2)c2ccccc21` (configuration not stated), the TGI was found to be 8.02 µM.

Take `CCOC(=O)C1(C/C=C/CBr)Cc2ccccc2C1=O` (configuration not stated): the TGI was 4.21 µM.

Take `COc1ccc(-c2c(C#N)c(-c3ccc(C)cc3)n(NS(=O)(=O)c3ccc(C)cc3)c(=O)c2C#N)cc1`: the TGI is over 100 µM.

`N#Cc1c(N2CCCC2)ncn(-c2ccccc2)c1=O` showed a TGI of over 100 µM.

In turn, `O=C1CCCSC(=O)N1Cc1ccccc1` came in with a TGI of over 100 µM.

A further experiment has as its system OVCAR-4 ovarian. Put plainly: NCI anticancer screen, dose series, 48 h.
In the case of `C[C@]12CCC(O)CC1=CC[C@@H]1[C@@H]2CC[C@]2(C)C(=O)[C@H](n3ccnc3)C[C@@H]12` (some centres not stated), the TGI is over 100 µM.

`O=C1/C(=C\c2ccccc2)C(NC2CCCCC2)c2ccccc21` (configuration not stated) came in with a TGI of 3.93 µM.

Take `CCOC(=O)C1(C/C=C/CBr)Cc2ccccc2C1=O` (configuration not stated): the TGI was 6.02 µM.

As to `COc1ccc(-c2c(C#N)c(-c3ccc(C)cc3)n(NS(=O)(=O)c3ccc(C)cc3)c(=O)c2C#N)cc1`, the TGI is over 100 µM.

In the case of `N#Cc1c(N2CCCC2)ncn(-c2ccccc2)c1=O`, the TGI was over 100 µM.

On to `O=C1CCCSC(=O)N1Cc1ccccc1`, for which the TGI was over 100 µM.

The next experiment relates to RXF 393 renal. Kind of experiment: NCI anticancer screen, dose series, 48 h.
Consider `C[C@]12CCC(O)CC1=CC[C@@H]1[C@@H]2CC[C@]2(C)C(=O)[C@H](n3ccnc3)C[C@@H]12` (some centres not stated), for which the TGI was over 100 µM.

For the compound `O=C1/C(=C\c2ccccc2)C(NC2CCCCC2)c2ccccc21` (configuration not stated), the TGI is 2.93 µM.

As to `CCOC(=O)C1(C/C=C/CBr)Cc2ccccc2C1=O` (configuration not stated), the TGI came to 6.32 µM.

The compound `COc1ccc(-c2c(C#N)c(-c3ccc(C)cc3)n(NS(=O)(=O)c3ccc(C)cc3)c(=O)c2C#N)cc1` displayed a TGI of over 100 µM.

As for `N#Cc1c(N2CCCC2)ncn(-c2ccccc2)c1=O`, the TGI is over 100 µM.

On to `O=C1CCCSC(=O)N1Cc1ccccc1`, for which the TGI was over 100 µM.

A further experiment relates to SF-539 CNS. Put plainly: NCI anticancer screen, dose series, 48 h.
The compound `C[C@]12CCC(O)CC1=CC[C@@H]1[C@@H]2CC[C@]2(C)C(=O)[C@H](n3ccnc3)C[C@@H]12` (some centres not stated) returned a TGI of over 100 µM.

Turning to `O=C1/C(=C\c2ccccc2)C(NC2CCCCC2)c2ccccc21` (configuration not stated), the TGI was found to be 4.39 µM.

Take `CCOC(=O)C1(C/C=C/CBr)Cc2ccccc2C1=O` (configuration not stated): the TGI is 3.39 µM.

As to `COc1ccc(-c2c(C#N)c(-c3ccc(C)cc3)n(NS(=O)(=O)c3ccc(C)cc3)c(=O)c2C#N)cc1`, the TGI was over 100 µM.

For the compound `N#Cc1c(N2CCCC2)ncn(-c2ccccc2)c1=O`, the TGI was over 100 µM.

Consider `O=C1CCCSC(=O)N1Cc1ccccc1`, for which the TGI was over 100 µM.

The test system of another experiment is SK-MEL-5 melanoma. Kind of experiment: NCI anticancer screen, dose series, 48 h.
`C[C@]12CCC(O)CC1=CC[C@@H]1[C@@H]2CC[C@]2(C)C(=O)[C@H](n3ccnc3)C[C@@H]12` (some centres not stated): the TGI stood at 45.2 µM.

Consider `O=C1/C(=C\c2ccccc2)C(NC2CCCCC2)c2ccccc21` (configuration not stated), for which the TGI stood at 6.65 µM.

`CCOC(=O)C1(C/C=C/CBr)Cc2ccccc2C1=O` (configuration not stated) yielded a TGI of 7.66 µM.

The compound `COc1ccc(-c2c(C#N)c(-c3ccc(C)cc3)n(NS(=O)(=O)c3ccc(C)cc3)c(=O)c2C#N)cc1` displayed a TGI of 58.3 µM.

In the case of `N#Cc1c(N2CCCC2)ncn(-c2ccccc2)c1=O`, the TGI is over 100 µM.

In the case of `O=C1CCCSC(=O)N1Cc1ccccc1`, the TGI is over 100 µM.

For the next experiment, the system named is SNB-19 CNS. Kind of experiment: NCI anticancer screen, dose series, 48 h.
The compound `C[C@]12CCC(O)CC1=CC[C@@H]1[C@@H]2CC[C@]2(C)C(=O)[C@H](n3ccnc3)C[C@@H]12` (some centres not stated) gave a TGI of over 100 µM.

`O=C1/C(=C\c2ccccc2)C(NC2CCCCC2)c2ccccc21` (configuration not stated): the TGI was 22.5 µM.

As for `CCOC(=O)C1(C/C=C/CBr)Cc2ccccc2C1=O` (configuration not stated), the TGI was 37.2 µM.

In turn, `COc1ccc(-c2c(C#N)c(-c3ccc(C)cc3)n(NS(=O)(=O)c3ccc(C)cc3)c(=O)c2C#N)cc1` came in with a TGI of over 100 µM.

The compound `N#Cc1c(N2CCCC2)ncn(-c2ccccc2)c1=O` registered a TGI of over 100 µM.

The compound `O=C1CCCSC(=O)N1Cc1ccccc1` came in with a TGI of over 100 µM.
